Species: Rattus norvegicus
Assay: DrugMatrix - Regimen: Daily Repeat
Format: toxicity, organism-based, Sprague-Dawley
Set-up: regimen Daily Repeat, gender Male, age 6-8 weeks
Conditions: in vivo, po, route oral GAVAGE, vehicle 100 % WATER; for BASOPHIL / EOSINOPHIL / ERYTHROCYTE COUNT / HEMATOCRIT / HEMOGLOBIN / LEUKOCYTE COUNT / LYMPHOCYTE / MEAN CORPUSCULAR HEMOGLOBIN / MEAN CORPUSCULAR HEMOGLOBIN CONCENTRATION / MEAN CORPUSCULAR VOLUME / MONOCYTE / NEUTROPHIL / PLATELET COUNT: tissue Blood; for ALANINE AMINOTRANSFERASE / ALBUMIN / ALKALINE PHOSPHATASE / ASPARTATE AMINOTRANSFERASE / BLOOD UREA NITROGEN / CARBON DIOXIDE / CHLORIDE / CHOLESTEROL / CREATINE PHOSPHOKINASE / CREATININE / GLUCOSE / LACTATE DEHYDROGENASE / LIPASE / PHOSPHORUS / POTASSIUM / SODIUM / TOTAL BILIRUBIN / TOTAL PROTEIN / URIC ACID: tissue Plasma
[1] = 0 mg/kg, 96 h, dose level Control, time 4 day
[2] = 0 mg/kg, […], dose level Control, time 6 day
[3] = 0 mg/kg, […], dose level Control, time 14 day
[4] = 210 mg/kg, 96 h, dose level High, time 4 day
[5] = 210 mg/kg, […], dose level High, time 6 day
[6] = 210 mg/kg, […], dose level High, time 14 day

OCC1CO1 (configuration not stated) [GLYCIDOL]
BASOPHIL [1]: 0.47%
EOSINOPHIL [1]: 0.58%
ERYTHROCYTE COUNT [1]: 6.84 x10E6/uL
HEMATOCRIT [1]: 44.27%
HEMOGLOBIN [1]: 14.08 G/DL
LEUKOCYTE COUNT [1]: 13.39 x10E3/uL
LYMPHOCYTE [1]: 83.57%
MEAN CORPUSCULAR HEMOGLOBIN [1]: 20.57 pg
MEAN CORPUSCULAR HEMOGLOBIN CONCENTRATION [1]: 31.77 G/DL
MEAN CORPUSCULAR VOLUME [1]: 64.68 fL
MONOCYTE [1]: 1.92%
NEUTROPHIL [1]: 12.95%
PLATELET COUNT [1]: 1533.67 x10E3/uL
ALANINE AMINOTRANSFERASE [1]: 28.17 u/L
ALBUMIN [1]: 3.82 G/DL
ALKALINE PHOSPHATASE [1]: 354.33 u/L
ASPARTATE AMINOTRANSFERASE [1]: 73.83 u/L
BLOOD UREA NITROGEN [1]: 16 mg/dL
CARBON DIOXIDE [1]: 27.17 mmol/L
CHLORIDE [1]: 104.83 MEQ/L
CHOLESTEROL [1]: 83.33 mg/dL
CREATINE PHOSPHOKINASE [1]: 288 u/L
CREATININE [1]: 0.33 mg/dL
GLUCOSE [1]: 181.33 mg/dL
LACTATE DEHYDROGENASE [1]: 173.17 u/L
LIPASE [1]: 17.67 u/L
PHOSPHORUS [1]: 11.5 mg/dL
POTASSIUM [1]: 6.8 MEQ/L
SODIUM [1]: 147 MEQ/L
TOTAL BILIRUBIN [1]: 0.35 mg/dL
TOTAL PROTEIN [1]: 6.35 G/DL
URIC ACID [1]: 1.55 mg/dL
BASOPHIL [2]: 0.33%
EOSINOPHIL [2]: 0.85%
ERYTHROCYTE COUNT [2]: 6.98 x10E6/uL
HEMATOCRIT [2]: 38.58%
HEMOGLOBIN [2]: 14.25 G/DL
LEUKOCYTE COUNT [2]: 11.01 x10E3/uL
LYMPHOCYTE [2]: 85.07%
MEAN CORPUSCULAR HEMOGLOBIN [2]: 20.47 pg
MEAN CORPUSCULAR HEMOGLOBIN CONCENTRATION [2]: 31.45 G/DL
MEAN CORPUSCULAR VOLUME [2]: 64.9 fL
MONOCYTE [2]: 1.9%
NEUTROPHIL [2]: 11.42%
PLATELET COUNT [2]: 1289.67 x10E3/uL
BASOPHIL [3]: 0.52%
EOSINOPHIL [3]: 0.55%
ERYTHROCYTE COUNT [3]: 7.72 x10E6/uL
HEMATOCRIT [3]: 51.87%
HEMOGLOBIN [3]: 15.32 G/DL
LEUKOCYTE COUNT [3]: 16.2 x10E3/uL
LYMPHOCYTE [3]: 85.13%
MEAN CORPUSCULAR HEMOGLOBIN [3]: 19.85 pg
MEAN CORPUSCULAR HEMOGLOBIN CONCENTRATION [3]: 29.52 G/DL
MEAN CORPUSCULAR VOLUME [3]: 67.17 fL
MONOCYTE [3]: 1.7%
NEUTROPHIL [3]: 11.6%
PLATELET COUNT [3]: 1104.17 x10E3/uL
ALANINE AMINOTRANSFERASE [2]: 28.17 u/L
ALBUMIN [2]: 3.78 G/DL
ALKALINE PHOSPHATASE [2]: 385.33 u/L
ASPARTATE AMINOTRANSFERASE [2]: 78 u/L
BLOOD UREA NITROGEN [2]: 16.83 mg/dL
CARBON DIOXIDE [2]: 26.67 mmol/L
CHLORIDE [2]: 106.83 MEQ/L
CHOLESTEROL [2]: 82.67 mg/dL
CREATINE PHOSPHOKINASE [2]: 225.5 u/L
CREATININE [2]: 0.27 mg/dL
GLUCOSE [2]: 179.5 mg/dL
LACTATE DEHYDROGENASE [2]: 98.33 u/L
LIPASE [2]: 14.67 u/L
PHOSPHORUS [2]: 12.28 mg/dL
POTASSIUM [2]: 7.03 MEQ/L
SODIUM [2]: 150.33 MEQ/L
TOTAL BILIRUBIN [2]: 0.38 mg/dL
TOTAL PROTEIN [2]: 6.45 G/DL
URIC ACID [2]: 1.6 mg/dL
ALANINE AMINOTRANSFERASE [3]: 37 u/L
ALBUMIN [3]: 4.13 G/DL
ALKALINE PHOSPHATASE [3]: 342 u/L
ASPARTATE AMINOTRANSFERASE [3]: 71 u/L
BLOOD UREA NITROGEN [3]: 16.5 mg/dL
CARBON DIOXIDE [3]: 28.17 mmol/L
CHLORIDE [3]: 104 MEQ/L
CHOLESTEROL [3]: 70.67 mg/dL
CREATINE PHOSPHOKINASE [3]: 287.67 u/L
CREATININE [3]: 0.38 mg/dL
GLUCOSE [3]: 150.17 mg/dL
LACTATE DEHYDROGENASE [3]: 81.33 u/L
LIPASE [3]: 16 u/L
PHOSPHORUS [3]: 11.32 mg/dL
POTASSIUM [3]: 6.22 MEQ/L
SODIUM [3]: 147.33 MEQ/L
TOTAL BILIRUBIN [3]: 0.43 mg/dL
TOTAL PROTEIN [3]: 6.55 G/DL
URIC ACID [3]: 1.38 mg/dL
BASOPHIL [4]: 0.37%
EOSINOPHIL [4]: 0.43%
ERYTHROCYTE COUNT [4]: 6.84 x10E6/uL
HEMATOCRIT [4]: 44.53%
HEMOGLOBIN [4]: 13.97 G/DL
LEUKOCYTE COUNT [4]: 11.04 x10E3/uL
LYMPHOCYTE [4]: 82.73%
MEAN CORPUSCULAR HEMOGLOBIN [4]: 20.43 pg
MEAN CORPUSCULAR HEMOGLOBIN CONCENTRATION [4]: 31.4 G/DL
MEAN CORPUSCULAR VOLUME [4]: 65.2 fL
MONOCYTE [4]: 2.77%
NEUTROPHIL [4]: 12.93%
PLATELET COUNT [4]: 1402.67 x10E3/uL
ALANINE AMINOTRANSFERASE [4]: 41.67 u/L
ALBUMIN [4]: 3.9 G/DL
ALKALINE PHOSPHATASE [4]: 368 u/L
ASPARTATE AMINOTRANSFERASE [4]: 81.33 u/L
BLOOD UREA NITROGEN [4]: 15.33 mg/dL
CARBON DIOXIDE [4]: 26 mmol/L
CHLORIDE [4]: 105.33 MEQ/L
CHOLESTEROL [4]: 107.33 mg/dL
CREATINE PHOSPHOKINASE [4]: 232 u/L
CREATININE [4]: 0.4 mg/dL
GLUCOSE [4]: 184 mg/dL
LACTATE DEHYDROGENASE [4]: 181 u/L
LIPASE [4]: 21 u/L
PHOSPHORUS [4]: 10.67 mg/dL
POTASSIUM [4]: 6.63 MEQ/L
SODIUM [4]: 147.33 MEQ/L
TOTAL BILIRUBIN [4]: 0.37 mg/dL
TOTAL PROTEIN [4]: 6.6 G/DL
URIC ACID [4]: 1.53 mg/dL
BASOPHIL [5]: 0.33%
EOSINOPHIL [5]: 0.33%
ERYTHROCYTE COUNT [5]: 6.72 x10E6/uL
HEMATOCRIT [5]: 43.03%
HEMOGLOBIN [5]: 13.67 G/DL
LEUKOCYTE COUNT [5]: 11.41 x10E3/uL
LYMPHOCYTE [5]: 88.93%
MEAN CORPUSCULAR HEMOGLOBIN [5]: 20.37 pg
MEAN CORPUSCULAR HEMOGLOBIN CONCENTRATION [5]: 31.77 G/DL
MEAN CORPUSCULAR VOLUME [5]: 64.1 fL
MONOCYTE [5]: 2.73%
NEUTROPHIL [5]: 6.93%
PLATELET COUNT [5]: 1416.33 x10E3/uL
BASOPHIL [6]: 0.43%
EOSINOPHIL [6]: 1.53%
ERYTHROCYTE COUNT [6]: 6.88 x10E6/uL
HEMATOCRIT [6]: 45.62%
HEMOGLOBIN [6]: 13.7 G/DL
LEUKOCYTE COUNT [6]: 12.42 x10E3/uL
LYMPHOCYTE [6]: 88.5%
MEAN CORPUSCULAR HEMOGLOBIN [6]: 19.93 pg
MEAN CORPUSCULAR HEMOGLOBIN CONCENTRATION [6]: 30.02 G/DL
MEAN CORPUSCULAR VOLUME [6]: 66.33 fL
MONOCYTE [6]: 1.9%
NEUTROPHIL [6]: 6.83%
PLATELET COUNT [6]: 1312.75 x10E3/uL
ALANINE AMINOTRANSFERASE [5]: 34 u/L
ALBUMIN [5]: 3.93 G/DL
ALKALINE PHOSPHATASE [5]: 398 u/L
ASPARTATE AMINOTRANSFERASE [5]: 76.33 u/L
BLOOD UREA NITROGEN [5]: 15.67 mg/dL
CARBON DIOXIDE [5]: 24.33 mmol/L
CHLORIDE [5]: 110 MEQ/L
CHOLESTEROL [5]: 95.33 mg/dL
CREATINE PHOSPHOKINASE [5]: 145 u/L
CREATININE [5]: 0.3 mg/dL
GLUCOSE [5]: 175.33 mg/dL
LACTATE DEHYDROGENASE [5]: 95.33 u/L
LIPASE [5]: 6 u/L
PHOSPHORUS [5]: 11.3 mg/dL
POTASSIUM [5]: 6.9 MEQ/L
SODIUM [5]: 151.67 MEQ/L
TOTAL BILIRUBIN [5]: 0.37 mg/dL
TOTAL PROTEIN [5]: 6.67 G/DL
URIC ACID [5]: 1.63 mg/dL
ALANINE AMINOTRANSFERASE [6]: 34 u/L
ALBUMIN [6]: 4.45 G/DL
ALKALINE PHOSPHATASE [6]: 332.5 u/L
ASPARTATE AMINOTRANSFERASE [6]: 55.5 u/L
BLOOD UREA NITROGEN [6]: 17 mg/dL
CARBON DIOXIDE [6]: 27 mmol/L
CHLORIDE [6]: 105 MEQ/L
CHOLESTEROL [6]: 100.75 mg/dL
CREATINE PHOSPHOKINASE [6]: 116.5 u/L
CREATININE [6]: 0.32 mg/dL
GLUCOSE [6]: 136.5 mg/dL
LACTATE DEHYDROGENASE [6]: 63.5 u/L
LIPASE [6]: 9.75 u/L
PHOSPHORUS [6]: 12.12 mg/dL
POTASSIUM [6]: 6.47 MEQ/L
SODIUM [6]: 148.25 MEQ/L
TOTAL BILIRUBIN [6]: 0.35 mg/dL
TOTAL PROTEIN [6]: 7.2 G/DL
URIC ACID [6]: 1.62 mg/dL
